# Measurements from article PMC7252619 (PLoS ONE, 2020).
# Like-named read-outs stand apart in the source and are kept apart here.
# Legend:
# EPHB4 = target: T1, EPHB4 (Homo sapiens, UniProt P54760); experiment: Kinase activity test (ReactionBiology), % enzyme activity relative to DMSO; type: biochemical; details: EPHB4;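 further: EPHB4 was one of ten selected kinases in the screening panel, with enzyme activity expressed as a percentage of DMSO controls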
# T1 construct: purchased ReactionBiology
# T1 sequence (P54760 16-987): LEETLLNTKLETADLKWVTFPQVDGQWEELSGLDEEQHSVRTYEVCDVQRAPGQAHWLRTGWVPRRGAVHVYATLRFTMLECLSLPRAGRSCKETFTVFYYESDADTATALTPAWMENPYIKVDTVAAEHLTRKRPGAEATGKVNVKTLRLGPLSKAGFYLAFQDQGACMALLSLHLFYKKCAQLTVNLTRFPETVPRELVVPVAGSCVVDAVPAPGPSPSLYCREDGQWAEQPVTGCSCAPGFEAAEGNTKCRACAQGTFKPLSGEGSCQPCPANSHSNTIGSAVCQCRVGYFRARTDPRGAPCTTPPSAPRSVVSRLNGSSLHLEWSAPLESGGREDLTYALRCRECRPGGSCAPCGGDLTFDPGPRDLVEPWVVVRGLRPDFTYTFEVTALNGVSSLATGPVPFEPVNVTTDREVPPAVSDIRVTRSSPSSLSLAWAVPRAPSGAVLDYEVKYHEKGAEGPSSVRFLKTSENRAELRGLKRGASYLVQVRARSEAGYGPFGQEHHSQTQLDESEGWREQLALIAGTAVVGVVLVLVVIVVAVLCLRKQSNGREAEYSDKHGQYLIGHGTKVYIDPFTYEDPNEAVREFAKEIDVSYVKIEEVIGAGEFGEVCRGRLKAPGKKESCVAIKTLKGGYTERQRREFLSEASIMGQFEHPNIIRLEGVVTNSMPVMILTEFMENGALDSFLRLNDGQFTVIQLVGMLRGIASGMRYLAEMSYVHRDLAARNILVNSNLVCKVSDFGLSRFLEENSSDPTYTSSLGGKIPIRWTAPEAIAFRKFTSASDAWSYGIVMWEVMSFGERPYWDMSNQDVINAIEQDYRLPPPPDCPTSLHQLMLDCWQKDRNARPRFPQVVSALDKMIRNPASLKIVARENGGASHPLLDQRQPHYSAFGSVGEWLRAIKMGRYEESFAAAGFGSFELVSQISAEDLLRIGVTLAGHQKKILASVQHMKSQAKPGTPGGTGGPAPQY
# VEGFR2 = VEGFR2 (Homo sapiens, UniProt P35968); experiment: as above; type: biochemical; parameters: purchased ReactionBiology; details: VEGFR2;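 further: VEGFR2 was one member of a ten-kinase screening panel testing marketed FDA-approved drugs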
# Chain of VEGFR2 (P35968 20-1356): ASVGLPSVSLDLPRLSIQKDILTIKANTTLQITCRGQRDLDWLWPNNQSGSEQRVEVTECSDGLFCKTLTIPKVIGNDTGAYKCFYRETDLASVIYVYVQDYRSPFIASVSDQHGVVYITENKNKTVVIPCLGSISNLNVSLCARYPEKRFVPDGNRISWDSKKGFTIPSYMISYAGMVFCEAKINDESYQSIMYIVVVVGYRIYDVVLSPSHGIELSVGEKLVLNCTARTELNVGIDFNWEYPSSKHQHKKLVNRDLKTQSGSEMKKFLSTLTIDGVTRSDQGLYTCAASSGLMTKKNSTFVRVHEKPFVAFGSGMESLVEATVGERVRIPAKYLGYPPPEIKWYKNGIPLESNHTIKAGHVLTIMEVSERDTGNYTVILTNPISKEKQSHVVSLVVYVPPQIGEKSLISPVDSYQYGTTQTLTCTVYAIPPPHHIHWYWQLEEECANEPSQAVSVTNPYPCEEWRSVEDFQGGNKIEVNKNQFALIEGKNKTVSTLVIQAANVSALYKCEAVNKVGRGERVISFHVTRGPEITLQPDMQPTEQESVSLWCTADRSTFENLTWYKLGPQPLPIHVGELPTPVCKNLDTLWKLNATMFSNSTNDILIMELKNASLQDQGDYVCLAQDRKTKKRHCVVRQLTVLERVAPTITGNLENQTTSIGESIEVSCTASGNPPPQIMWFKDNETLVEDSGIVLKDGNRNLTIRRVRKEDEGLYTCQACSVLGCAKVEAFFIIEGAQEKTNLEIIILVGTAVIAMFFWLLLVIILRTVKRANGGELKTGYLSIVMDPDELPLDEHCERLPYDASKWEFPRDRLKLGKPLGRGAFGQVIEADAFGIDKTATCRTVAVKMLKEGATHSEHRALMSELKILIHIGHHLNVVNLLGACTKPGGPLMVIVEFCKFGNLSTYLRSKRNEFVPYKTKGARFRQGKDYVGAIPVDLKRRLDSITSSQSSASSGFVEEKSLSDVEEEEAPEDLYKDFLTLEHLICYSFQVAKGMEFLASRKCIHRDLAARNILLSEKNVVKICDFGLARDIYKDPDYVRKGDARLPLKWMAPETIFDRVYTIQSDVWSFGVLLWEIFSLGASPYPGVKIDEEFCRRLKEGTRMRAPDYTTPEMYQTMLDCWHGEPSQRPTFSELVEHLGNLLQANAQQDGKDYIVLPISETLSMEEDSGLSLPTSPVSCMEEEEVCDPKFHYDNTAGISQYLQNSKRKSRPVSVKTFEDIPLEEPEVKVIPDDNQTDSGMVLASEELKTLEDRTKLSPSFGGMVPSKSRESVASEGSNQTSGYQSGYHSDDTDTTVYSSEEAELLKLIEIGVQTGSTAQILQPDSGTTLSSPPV
# [1] = WST-1 cytotoxicity assay on RPMI1788 cells (B-cell line); type: cell-based, human; details: human, RPMI1788 cells (B-cell line), mean of 4 independent measures, read-out: Cytotoxicity, WST-1 RPMI 1788 IC 50 (µM) Mean
# Protocol: (§1) Compounds were prepared as 10 mM stock solutions in dimethylsulfoxide (DMSO)and were tested at 50-10-1-0.1-0.01 and 0.001 μM in the 4 assays.
# (§2) The human B cell line RPMI1788 (American Type Culture Collection, USA) and the human T cell line Jurkat (European Collection of Cell Cultures, ECACC, England) were maintained in RPMI1640 culture medium (BioWhittaker®, Lonza, Verviers, Belgium) containing 10% foetal calf serum (FCS, HyClone® Thermo Scientific, United Kingdom) and 5 μg/mL gentamicin sulphate (BioWhittaker®, Lonza, Verviers, Belgium) at 37°C and 5% CO2.
# (§3) WST-1 assays on RPMI-1788 cells and Jurkat cells were performed as follows: 20 μL of test compound dilution were added to each well containing exponential growing cells and the plates were incubated for 48 h at 37°C, 5% CO2. Untreated cells and positive control (1% triton X-100, for the last 15 min) served as reference for maximum and minimum viability. At the end of incubation 100 μL of supernatant were removed and replaced by 10 μL of WST-1 solution (Cell Proliferation Reagent WST-1, Roche Applied Science).
# human CD19+ B cells = experiment: B-cell assay: IgG production of ODN2006-stimulated primary B cells (AlphaLISA); type: cell-based; details: Homo sapiens, B-cell, 168 h; IgG production, ODN2006 0.1 μM, 7 days; mean of 4 independent experiments; read-out: B-cell IC50
# CK1d = target: T2, CK1d (Homo sapiens, UniProt P48730); experiment: Kinase activity test (ReactionBiology), % enzyme activity relative to DMSO; type: biochemical; details: CK1d
# T2 construct: purchased ReactionBiology
# T2 sequence (P48730 whole entry): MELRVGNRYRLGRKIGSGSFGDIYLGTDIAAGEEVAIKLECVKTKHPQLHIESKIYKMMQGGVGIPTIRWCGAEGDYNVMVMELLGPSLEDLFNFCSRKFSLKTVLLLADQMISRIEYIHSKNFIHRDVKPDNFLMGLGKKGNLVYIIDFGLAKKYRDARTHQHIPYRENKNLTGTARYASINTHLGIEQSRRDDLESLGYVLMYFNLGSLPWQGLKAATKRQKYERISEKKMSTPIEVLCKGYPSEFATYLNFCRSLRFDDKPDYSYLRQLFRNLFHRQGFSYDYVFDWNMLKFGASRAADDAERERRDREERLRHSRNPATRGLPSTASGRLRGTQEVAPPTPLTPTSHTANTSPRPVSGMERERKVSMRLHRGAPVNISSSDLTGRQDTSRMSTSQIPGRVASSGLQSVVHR
# [2] = test system: human PBMCs (responder cells) with RPMI1788 stimulator cells; experiment: Mixed Lymphocyte Reaction (MLR, T cell assay), 3H-thymidine incorporation; type: cell-based; details: for IC50: Homo sapiens, RPMI-1788, mean of 4 independent measures, read-out: T-cell efficacy, MLR IC 50 (µM) Mean
# Protocol: In order to test the efficacy and selectivity of the hit compounds on B-cells, 4 assays were performed: B-cell assay, Mixed Lymphocyte Reaction (MLR), WST-1 assay on RPMI1788 cells (B-cell line) and cytotoxicity WST-1 assay on Jurkat cells (T-cell line). Compounds were prepared as 10 mM stock solutions in dimethylsulfoxide (DMSO)and were tested at 50-10-1-0.1-0.01 and 0.001 μM in the 4 assays.
# Blood samples of healthy volunteers were collected at the Red Cross of Mechelen, Belgium. Each donor consents to the use of their blood for research purposes. […] The human B cell line RPMI1788 (American Type Culture Collection, USA) and the human T cell line Jurkat (European Collection of Cell Cultures, ECACC, England) were maintained in RPMI1640 culture medium (BioWhittaker®, Lonza, Verviers, Belgium) containing 10% foetal calf serum (FCS, HyClone® Thermo Scientific, United Kingdom) and 5 μg/mL gentamicin sulphate (BioWhittaker®, Lonza, Verviers, Belgium) at 37°C and 5% CO2.
# MLR assay (T cell assay): Freshly isolated human PBMCs (responder cells) were resuspended in RPMI1640 medium containing 10% FCS and 5nμg/mL gentamicin sulphate. RPMI1788 cells (stimulator cells) were inactivated by treatment with mitomycin C (Kyowa®, Takeda Belgium, Brussels, Belgium) for 20 min at 37°C, washed and finally suspended in culture medium. An amount of 100 μL of each cell suspension was mixed with 20 μL of diluted compound. The mixed cells were cultured at 37°C for 6 days in 5% CO2. DNA synthesis was assayed by the addition of 10 μCi (methyl-3H) thymidine (Perkin Elmer, Zaventem, Belgium) per well during the last 18 h in culture. Thereafter, the cells were harvested on glass filter paper and the counts per minute determined in a liquid scintillation counter (TopCount, Perkin Elmer, Zaventem, Belgium).
# [3] = WST-1 cytotoxicity assay on Jurkat cells (T-cell line); type: cell-based, human; details: human, Jurkat cells (T-cell line), mean of 4 independent measures, read-out: Cytotoxicity, WST-1 Jurkat IC 50 (µM) Mean
# Protocol: as §1, §2, §3
# NEK2 = target: T3, NEK2 (Homo sapiens, UniProt P51955); experiment: Kinase activity test (ReactionBiology), % enzyme activity relative to DMSO; type: biochemical; details: NEK2;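 further: FDA-approved drugs chosen by structure-based repositioning, each screened at 10 or 1 µM for kinase activity, expressed as percent of DMSO controls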
# T3 construct: purchased ReactionBiology
# T3 sequence (P51955 1-445): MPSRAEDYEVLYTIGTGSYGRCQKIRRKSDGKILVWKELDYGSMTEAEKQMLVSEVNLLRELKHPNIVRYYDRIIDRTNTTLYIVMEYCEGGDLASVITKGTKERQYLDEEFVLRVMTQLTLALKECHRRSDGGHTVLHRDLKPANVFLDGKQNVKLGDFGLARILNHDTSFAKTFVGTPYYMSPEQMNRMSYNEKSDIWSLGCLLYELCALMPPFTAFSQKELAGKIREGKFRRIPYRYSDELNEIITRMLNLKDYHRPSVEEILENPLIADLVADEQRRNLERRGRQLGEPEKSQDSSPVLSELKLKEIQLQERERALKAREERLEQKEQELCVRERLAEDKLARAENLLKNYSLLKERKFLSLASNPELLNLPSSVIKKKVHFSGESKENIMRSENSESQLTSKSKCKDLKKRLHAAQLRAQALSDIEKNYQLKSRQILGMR
# DAPK1 = target: T4, DAPK1 (Homo sapiens, UniProt P53355); experiment: as above; type: biochemical; details: DAPK1
# T4 construct: purchased ReactionBiology
# T4 sequence (P53355 whole entry): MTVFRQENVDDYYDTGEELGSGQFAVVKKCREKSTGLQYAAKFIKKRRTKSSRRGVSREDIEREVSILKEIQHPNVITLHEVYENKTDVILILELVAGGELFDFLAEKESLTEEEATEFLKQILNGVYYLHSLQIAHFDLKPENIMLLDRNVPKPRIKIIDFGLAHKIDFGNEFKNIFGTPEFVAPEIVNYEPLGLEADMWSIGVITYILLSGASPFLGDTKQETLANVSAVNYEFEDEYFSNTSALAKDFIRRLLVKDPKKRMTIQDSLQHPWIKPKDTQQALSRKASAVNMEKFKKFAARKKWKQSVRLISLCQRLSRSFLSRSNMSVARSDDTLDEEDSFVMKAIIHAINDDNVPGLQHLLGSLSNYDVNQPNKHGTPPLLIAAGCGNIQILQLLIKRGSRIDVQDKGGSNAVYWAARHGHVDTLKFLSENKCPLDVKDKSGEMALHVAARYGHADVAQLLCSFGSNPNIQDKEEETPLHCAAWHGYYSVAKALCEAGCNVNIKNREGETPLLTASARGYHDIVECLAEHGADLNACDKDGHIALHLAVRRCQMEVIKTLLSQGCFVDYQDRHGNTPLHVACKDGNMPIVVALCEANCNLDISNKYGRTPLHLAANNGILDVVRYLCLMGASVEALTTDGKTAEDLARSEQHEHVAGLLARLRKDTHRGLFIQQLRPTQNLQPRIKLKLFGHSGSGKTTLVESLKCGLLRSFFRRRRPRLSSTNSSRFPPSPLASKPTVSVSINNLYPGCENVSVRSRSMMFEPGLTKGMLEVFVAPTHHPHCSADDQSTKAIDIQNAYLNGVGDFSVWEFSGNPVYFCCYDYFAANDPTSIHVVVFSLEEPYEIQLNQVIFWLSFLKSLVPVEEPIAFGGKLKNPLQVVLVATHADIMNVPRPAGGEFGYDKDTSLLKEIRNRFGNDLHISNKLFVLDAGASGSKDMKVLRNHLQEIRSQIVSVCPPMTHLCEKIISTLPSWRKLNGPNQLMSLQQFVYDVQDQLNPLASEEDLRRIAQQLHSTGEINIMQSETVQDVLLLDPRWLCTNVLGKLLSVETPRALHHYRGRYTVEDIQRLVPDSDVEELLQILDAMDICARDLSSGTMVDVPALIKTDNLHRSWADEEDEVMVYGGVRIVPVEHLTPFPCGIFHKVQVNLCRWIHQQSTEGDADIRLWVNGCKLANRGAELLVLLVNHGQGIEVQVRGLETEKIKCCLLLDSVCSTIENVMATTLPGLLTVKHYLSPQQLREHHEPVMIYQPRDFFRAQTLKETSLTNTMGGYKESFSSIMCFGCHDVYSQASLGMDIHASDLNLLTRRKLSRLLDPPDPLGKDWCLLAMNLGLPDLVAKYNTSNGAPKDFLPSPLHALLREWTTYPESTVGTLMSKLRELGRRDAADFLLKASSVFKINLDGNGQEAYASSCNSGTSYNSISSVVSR
# [4] = 1 uM, Average, read-out: % Enzyme Activity (relative to DMSO controls), Average
# [5] = 1 uM, replicate Data 1, read-out: % Enzyme Activity (relative to DMSO controls), Data 1
# [6] = 1 uM, replicate Data 2, read-out: % Enzyme Activity (relative to DMSO controls), Data 2
# [7] = 10 uM, Average, read-out: % Enzyme Activity (relative to DMSO controls), Average
# [8] = 10 uM, replicate Data 1, read-out: % Enzyme Activity (relative to DMSO controls), Data 1
# [9] = 10 uM, replicate Data 2, read-out: % Enzyme Activity (relative to DMSO controls), Data 2
# [10] = compound 1μM, relative to DMSO controls, read-out: % Enzyme activity at 1μM
# [11] = compound 10μM, relative to DMSO controls, read-out: % Enzyme activity at 10μM
# [12] = Average, read-out: % Enzyme Activity (relative to DMSO controls), Average
# [13] = replicate Data 1, read-out: % Enzyme Activity (relative to DMSO controls), Data 1
# [14] = replicate Data 2, read-out: % Enzyme Activity (relative to DMSO controls), Data 2
Structure (SMILES),remaining activity at 1 µM (EPHB4; [4]),remaining activity at 1 µM (EPHB4; [5]),remaining activity at 1 µM (EPHB4; [6]),remaining activity at 10 µM (EPHB4; [7]),remaining activity at 10 µM (EPHB4; [8]),remaining activity at 10 µM (EPHB4; [9]),remaining activity at 1 µM (VEGFR2; [12]),remaining activity at 1 µM (VEGFR2; [13]),remaining activity at 1 µM (VEGFR2; [14]),remaining activity at 10 µM (VEGFR2; [12]),remaining activity at 10 µM (VEGFR2; [13]),remaining activity at 10 µM (VEGFR2; [14]),IC50 at 48 h [1],IC50 (human CD19+ B cells),remaining activity at 1 µM (CK1d; [12]),remaining activity at 1 µM (CK1d; [13]),remaining activity at 1 µM (CK1d; [14]),remaining activity at 10 µM (CK1d; [12]),remaining activity at 10 µM (CK1d; [13]),remaining activity at 10 µM (CK1d; [14]),other results
"NC(=O)c1cccnc1 [Niacinamide, reference compound]",69.3%,69%,69.6%,69.7%,68.3%,71.1%,96.4%,97.5%,95.4%,95.7%,90.6%,101%,> 50 µM,> 50 µM,113%,107%,119%,101%,97.9%,105%,remaining activity at 1 µM (EPHB4; [10]): 69.3%; remaining activity at 10 µM (EPHB4; [11]): 69.7%; IC50 [2]: > 50 µM; IC50 at 48 h [3]: > 50 µM; remaining activity at 1 µM (NEK2; [12]): 87.3%; remaining activity at 1 µM (NEK2; [13]): 81%; remaining activity at 1 µM (NEK2; [14]): 93.6%; remaining activity at 10 µM (NEK2; [12]): 76.4%; remaining activity at 10 µM (NEK2; [13]): 65%; remaining activity at 10 µM (NEK2; [14]): 87.8%; remaining activity at 1 µM (DAPK1; [4]): 111%; remaining activity at 1 µM (DAPK1; [5]): 112%; remaining activity at 1 µM (DAPK1; [6]): 110%; remaining activity at 10 µM (DAPK1; [7]): 100%; remaining activity at 10 µM (DAPK1; [8]): 97.7%; remaining activity at 10 µM (DAPK1; [9]): 103%
"C[C@]12CC[C@@H]3c4ccc(O)cc4CC[C@H]3[C@@H]1CC[C@@H]2O [Estradiol, reference compound]",100%,99.8%,100%,91.9%,91.3%,92.5%,115%,115%,115%,105%,106%,103%,35.9 µM,33.9 µM,101%,99.6%,102%,96.5%,98.7%,94.2%,IC50 [2]: 21.2 µM; Selectivity Index (SI) MLR/B-cell ([2]; ratio of IC50 values): 0.63; IC50 at 48 h [3]: 19.5 µM; remaining activity at 1 µM (NEK2; [12]): 92.1%; remaining activity at 1 µM (NEK2; [13]): 95.7%; remaining activity at 1 µM (NEK2; [14]): 88.5%; remaining activity at 10 µM (NEK2; [12]): 89%; remaining activity at 10 µM (NEK2; [13]): 94.9%; remaining activity at 10 µM (NEK2; [14]): 83%; remaining activity at 1 µM (DAPK1; [4]): 111%; remaining activity at 1 µM (DAPK1; [5]): 98%; remaining activity at 1 µM (DAPK1; [6]): 123%; remaining activity at 10 µM (DAPK1; [7]): 69%; remaining activity at 10 µM (DAPK1; [8]): 68.3%; remaining activity at 10 µM (DAPK1; [9]): 69.7%; remaining activity at 1 µM (DAPK1; [10]): 111%; remaining activity at 10 µM (DAPK1; [11]): 69%
